Where a SMILES comes first, the peptide text is derived from it. Where no end group is shown, it is not given here. [ ]: non-standard residue; d: D form. ξ: configuration not given here. ξαMeGly(pent-4-enyl) = C=CCCCC(C)(N)C(=O)O

The test system of data set [1] is MDR A. baumannii. The settings on record: 2 h, 1.4 μM.
Data set [2] deals with MDR S. flexneri.
Data set [3] relates to MDR S. Typhi. The settings on record: 2 h, 2.8 μM.
Data set [4] has as its system CRE K. pneumoniae.
The test system of data set [5] is MDR P. aeruginosa. The settings on record: 2 h, 5.6 μM.
Data set [6] relates to MRSA. Conditions: 2 h, 11.2 μM.
For data set [7], the system named is VRE. Conditions: 2 h, 11.2 μM.
Data set [8] concerns MDR Enterobacter cloacae. Conditions: 2 h, 16.8 μM.
Data set [9] relates to N. gonorrhoeae. The settings on record: 2 h, 22.4 μM.
In data set [10] the test system is B. anthracis. The settings on record: 2 h, 22.4 μM.
The conditions of data set [11]: assay media, higher concentrations.
For data set [12], the system named is CRE K. pneumoniae. It counts as cell-based, Klebsiella pneumoniae. Conditions: for function of alanine scan variants: 2 hours (FIGS. 21, 22); for bactericidal activity versus negative control Peptide P5: 2.5×10^5 cfu/ml.
A short description of data set [13]: Truncation of Peptide P9, retention of activity. Conditions: first 6 amino acids removed. The text has this:
In some embodiments, alanine scans are available for […] (SEQ ID NO: 11). The alanine scan was used to modify the malleable position 8 and to make a conservative substitution at alanine residue 12 with an alkenyl derivative of alanine, namely, 2-(4-pentenyl)alanine, and then the alkene groups at positions 8 and 12 were coupled/stapled. Thus, a modified peptide in accordance with the presently disclosed subject matter includes a coupled peptide or a stapled peptide. […] Further, the first 6 amino acids present in […] (SEQ ID NO: 11) can be removed one by one while still retaining activity; removing all 6 gives KNLLKAVSKERSKRSP (SEQ ID NO: 12). Further truncations are also provided, including from the other end (such as the two end residues based on the alanine scan).

The test system of data set [14] is MDR S. Typhi. In kind it is cell-based, Salmonella enterica serovar Typhi. Conditions: 50 μM, RPMI/HEPES, 2.5×10^5 cfu/ml.
For data set [15], the system named is CD45+/CD3+ T lymphocytes. Description: Host-targeted bioregulatory effects: in vivo recruitment/infiltration of T lymphocytes. Also noted: species or system C57BL/6 mice. Conditions: as stated in the sequence description; FIG. 12.
For data set [16], the system named is B. anthracis Sterne strain 7702 spores. In kind it is cell-based, Bacillus anthracis. Conditions: 50 μM, RPMI/HEPES+2% FBS, 3 hours post-treatment, 1.0×10^7 cfu/ml spores.
Data set [17] relates to K. pneumoniae ATCC 43816. Description: Full-thickness wound infection model. It counts as in vivo, C57BL/6 mice.
In data set [18] the test system is trypsin protease. Description: Resistance to proteolytic degradation (trypsin pretreatment, read out by killing of CRE K. pneumoniae). The settings on record: trypsin 200:1 molar ratio, 2 hours, 50 mM Tris-HCl + 20 mM CaCl2.

With `CC[C@H](C)[C@H](NC(=O)[C@H](CO)NC(=O)[C@@H](NC(=O)[C@H](CS)NC(=O)[C@@H](NC(=O)[C@H](CS)NC(=O)[C@H](CCCNC(=N)N)NC(=O)[C@@H](NC(=O)[C@@H](NC(=O)[C@H](CCCNC(=N)N)NC(=O)[C@H](CO)NC(=O)[C@H](CC(C)C)NC(=O)[C@@H]1CCCN1C(=O)[C@@H](N)C(C)C)[C@@H](C)O)C(C)C)[C@@H](C)O)[C@@H](C)CC)C(=O)O` [Peptide P1, VPLSRTVRCTCISI] (H-VPLSRTVRCTCISI-OH; N-terminus and C-terminus assumed), the killing of bacteria is 99.0-99.9% in [1]; 99.0-99.9% in data set [2] (MDR, 2 h, 2.8 μM); 99.0-99.9% in [3]; 99.0-99.9% in data set [4] (CRE, 2 h, 5.6 μM); 99.0-99.9% in [5]; 99.0-99.9% in [6]. The killing of bacteria in [7], in data set [8], in data set [9] and in data set [10] was 99.0-99.9% throughout. In data set [11], the solubility result is on record as “experienced solubility issues at higher concentrations”.
On to “ATVRCTCI (Artificially synthesized antibacterial peptide or conjugate) [SEQ ID NO: 25, alanine scan variant of Peptide L8, position 1]”, for which, in data set [12] (50 μM, RPMI/HEPES), the “function of alanine scan variants” value is “still functional”.
In the case of “CSVPTITCRVRLIS (Artificially synthesized antibacterial peptide or conjugate) [Peptide P1scram]”, the “survival of bacteria following exposure (killing)” value is recorded as “did not kill bacteria” in [2] (2.8 μM peptide, FIG. 6) and “did not kill bacteria” in data set [4] (2.8 μM peptide, FIG. 6).
“KNLLKAVSKERSKRSP (Artificially synthesized antibacterial peptide or conjugate) [SEQ ID NO: 12, 16 amino acid core, truncated version of Peptide P9]”: the “retention of the activities of Peptide P9 after truncation” value in data set [13] is on record as “retains the activities of Peptide P9”.
Consider “L8-L8-L8: three copies of Peptide L8 concatemerized in head-to-tail configuration (RTVRCTCIRTVRCTCIRTVRCTCI; Artificially synthesized antibacterial peptide or conjugate) [Peptide L8-L8-L8]”, for which, in data set [12] (50 μM, RPMI/HEPES), the “bactericidal activity versus negative control Peptide P5” value is “killed CRE K. pneumoniae statistically significantly more effectively than Peptide P5”.
“LSRTVRCTCISI (Artificially synthesized antibacterial peptide or conjugate) [Peptide ΔVP, truncated Peptide P1 variant lacking the first two amino acids]”: the “bactericidal activity versus negative control Peptide P5” value in data set [12] (50 μM, RPMI/HEPES) was “statistically significant differences”; in data set [14], “statistically significant differences”. The immunomodulatory activity entry in [15] is listed as “reduced or absent immunomodulatory activity”.
Take “PESKAIK(pA)LLK(pA)VSKERSKRSP (PESKAIK[ξαMeGly(pent-4-enyl)]LLK[ξαMeGly(pent-4-enyl)]VSKERSKRSP) [alkene-modified peptide, Peptide P9 variant with 2-(4-pentenyl)alanine at amino acids 8 and 12]”: the “activity of modified Peptide P9 variants relative to Peptide P9” value in data set [12] (50 μM, RPMI/HEPES, 2 hours (FIG. 20)) is recorded as “increased activity”.
For PESKAIKNLLKAVSKERSKRSP [Peptide P9], the “activity in hypotonic buffer” value in [12] (10 mM KPB/1% TSB, 2 hours at 37° C., FIG. 10) was “had activity”. Moreover, in data set [12] (RPMI/HEPES, 2 hours at 37° C., FIG. 10), the “activity in RPMI (normosaline)” value was “lost activity”. Besides, the killing of bacteria in [9] is listed as 99.0-99.9%.
With “PESKAIKNLLKAVSKERSKRSPGGGVPLSRTVRCTCISI (Artificially synthesized antibacterial peptide or conjugate) [Peptide P59, Peptide P9 conjugated to Peptide P1 via a tri-glycine linker]”, the “spore germination (numbers of bacilli)” value in [16] is “reduced spore germination”.
As for “RAVRCTCI (Artificially synthesized antibacterial peptide or conjugate) [SEQ ID NO: 26, alanine scan variant of Peptide L8, position 2]”, in data set [12] (50 μM, RPMI/HEPES), the “function of alanine scan variants” value is reported as “still functional”.
Turning to RTVRCTCI [Peptide D8], the “antimicrobial activity after incubation with trypsin” value in data set [12] (50 μM peptide pretreated with trypsin (200:1 molar ratio) for 2 hours) is “retaining antimicrobial activity”. The “bactericidal activity versus negative control Peptide P5” value in [12] (50 μM, RPMI/HEPES) was “statistically significant differences”; in data set [14], “statistically significant differences”. Moreover, the “spore germination (numbers of bacilli)” value in data set [16] is on record as “reduced spore germination”. Also, the “survival (Kaplan-Meier) of infected mice” value in [17] (10 μl of 1.2% peptide in saline topically, 4 hours post-infection then twice per day for 4 days, versus saline) is “statistically significant increase in survival”. The “bacterial burden of wound swabs on LB agar” value in data set [17] (same treatment, day 14 post-infection) is “No bacterial growth was observed”. In addition, the “wound status over the course of infection” value in data set [17] (same treatment, through day 21) was “bacterial infection was resolved and healing occurred”. Moreover, in [18], the “resistance to proteolytic degradation” value was “resistant to proteolytic degradation”.
In the case of RTVRCTCI [Peptide L8], the “bactericidal activity versus negative control Peptide P5” value in data set [12] (50 μM, RPMI/HEPES) is reported as “killed CRE K. pneumoniae statistically significantly more effectively than Peptide P5”.
In the case of “VPLSRTVRTVRCTCISIGGGPESKAIKNLLKAVSKERSKRSP [Peptide P55]”, the “bactericidal activity versus negative control Peptide P5” value is “statistically significant differences” in data set [12] (50 μM, RPMI/HEPES) and “statistically significant differences” in [14].

These data come from patent US20210300981A1, “COMPOSITIONS AND METHODS FOR COMBATING MULTIDRUG-RESISTANT BACTERIA” (University of Virginia Patent Foundation, priority 2018, published 2021).
